Values of other authors in PubChem BioAssay AID1259409 (Chemical Carcinogenesis Research Information System (CCRIS), 2018).
Where “and” joins values, the source holds several entries; their conditions need not be identical. Equal values may be shown once.

Test system: rodent chemically induced tumor inhibition, incidence and multiplicity
Assay: CCRIS tumor inhibitor studies
Conditions: Promoter: NONE USED

CC1=C(/C=C/C(C)=C/C=C/C(C)=C/C=C/C=C(C)/C=C/C=C(C)/C=C/C2=C(C)CCCC2(C)C)C(C)(C)CCC1
outcome (Carcinogen: N-METHYL-N'-NITRO-N-NITROSOGUANIDINE, 70-25-7, Dose [Inhibitor]: 0, 0.4% IN DIET FOR 2 WK PRIOR TO FIRST CARCINOGEN DOSE FOLLOWED BY 0, 0.2% IN DIET FOR 52 WK (STUDY DURATION: 54 WK), Dose [Inhibitor]: 0, 0.4% IN DIET FOR 2 WK PRIOR TO FIRST CARCINOGEN DOSE FOLLOWED BY 0, 0.2% IN DIET FOR 52 WK (STUDY DURATION: 54 WK), Route [Inhibitor]: ORAL, Species: RAT, Strain/Sex: WISTAR/MALE, Target Tissue: Type of Lesion: SMALL INTESTINE: FIBROSARCOMA, Dose [Carcinogen]: 80 UG/ML IN DRINKING WATER FOR 52 WK): 0/36 (0%), 1/35 (3%), -300%, not calculated
tumour outcome (control, treated, inhibition, significance) (Carcinogen: N-METHYL-N'-NITRO-N-NITROSOGUANIDINE, 70-25-7, Dose [Inhibitor]: 0, 0.4% IN DIET FOR 2 WK PRIOR TO FIRST CARCINOGEN DOSE FOLLOWED BY 0, 0.2% IN DIET FOR 52 WK (STUDY DURATION: 54 WK), Dose [Inhibitor]: 0, 0.4% IN DIET FOR 2 WK PRIOR TO FIRST CARCINOGEN DOSE FOLLOWED BY 0, 0.2% IN DIET FOR 52 WK (STUDY DURATION: 54 WK), Route [Inhibitor]: ORAL, Species: RAT, Strain/Sex: WISTAR/MALE, Target Tissue: Type of Lesion: SMALL INTESTINE: LEIOMYOMA, Dose [Carcinogen]: 80 UG/ML IN DRINKING WATER FOR 52 WK): 1/36 (3%), 0/35 (0%), 100%, not calculated
tumour outcome (control, treated, inhibition, significance) (Carcinogen: NONE USED, Dose [Inhibitor]: 0, 0.005% IN DRINKING WATER AD LIBITUM FOR 40 WK (STUDY DURATION: 40 WK), Route [Inhibitor]: ORAL, Species: MOUSE, Strain/Sex: C3H/HE/MALE, Target Tissue: Type of Lesion: LIVER: TUMOR): 100%, 100%, 0%, not significant
tumour outcome (control, treated, inhibition, significance) (Carcinogen: NONE USED, Dose [Inhibitor]: 0, 0.005% IN DRINKING WATER FOR 40 WK (STUDY DURATION: 40 WK), Route [Inhibitor]: ORAL, Species: MOUSE, Strain/Sex: C3H/HE/MALE, Target Tissue: Type of Lesion: LIVER: TUMORS): 16/16 (100%), 16/16 (100%), 0%, not significant
tumour outcome (control, treated, inhibition, significance) (Carcinogen: NONE USED, Dose [Inhibitor]: 0, 0.05% IN DRINKING WATER AD LIBITUM FOR 40 WK (STUDY DURATION: 40 WK), Route [Inhibitor]: ORAL, Species: MOUSE, Strain/Sex: C3H/HE/MALE, Target Tissue: Type of Lesion: LIVER: TUMOR): 100%, 100%, 0%, not significant
tumour outcome (control, treated, inhibition, significance) (Carcinogen: NONE USED, Dose [Inhibitor]: 0, 0.05% IN DRINKING WATER FOR 40 WK (STUDY DURATION: 40 WK), Route [Inhibitor]: ORAL, Species: MOUSE, Strain/Sex: C3H/HE/MALE, Target Tissue: Type of Lesion: LIVER: TUMORS): 16/16 (100%), 17/17 (100%), 0%, not significant
tumour outcome (control, treated, inhibition, significance) (Carcinogen: NONE USED, Dose [Inhibitor]: 0, 2.5 MG/D IN DRINKING WATER FROM 8 MO OF AGE (STUDY DURATION: 15 MO), Route [Inhibitor]: ORAL, Species: MOUSE, Strain/Sex: C3H/FEMALE, Target Tissue: Type of Lesion: MAMMARY GLAND: TUMOR): 12/20 (60%), 4/19 (21%), 65%, not calculated
tumour outcome (control, treated, inhibition, significance) (Carcinogen: UV-B IRRADIATION (HANOVIA QUARTZ CONTACT LAMP IN 290-320 NM RANGE), Dose [Inhibitor]: 0.4 ML OF BEADLET SOLUTION CONTAINING 0.1 G/4 ML 3/WK FOR 1 MO FOLLOWED BY 0.2 ML OF BEADLET SOLUTION CONTAINING 0.1 G/4, Route [Inhibitor]: INTRAPERITONEAL, Species: MOUSE, Strain/Sex: ALBINO, Target Tissue: Type of Lesion: SKIN: SQUAMOUS CELL CARCINOMA, Dose [Carcinogen]: 6.5 KJ/SQ M 3/WK FOR 15 MO BEGINNING 1 MO POST AGENT DOSE): 14/21 (67%), 6/20 (25%), 63%, p=0.0189 and 14/21 (67%), 5/18 (28%), 58%, p=0.0154
tumour outcome (control, treated, inhibition, significance) (Carcinogen: UV-B IRRADIATION (WESTINGHOUSE FS-20 SUNLAMP 55% IN 290-320 NM RANGE), Dose [Inhibitor]: 3.3 G/100 G OF PELLETIZED FEED BEGINNING 10 WK PRIOR TO CARCINOGEN DOSE TO 24 WK POST CARCINOGEN DOSE (STUDY DURATION: 3, Route [Inhibitor]: ORAL, Species: MOUSE, Strain/Sex: SKH, Target Tissue: Type of Lesion: SKIN: TUMOR, Dose [Carcinogen]: 80 KJ/SQ M TOTAL ENERGY DURING A 220 MINUTE SINGLE EXPOSURE): 4/9 (44%), 2/7 (29%), 34%, not significant
tumour outcome (control, treated, inhibition, significance) (Carcinogen: UVB IRRADIATION, Dose [Inhibitor]: 0, 1% IN DIET FOR DURATION OF STUDY BEGINNING 3 WK PRIOR TO IRRADIATION (STUDY DURATION: 33 WK), Route [Inhibitor]: ORAL, Species: MOUSE, Strain/Sex: C3H/HEN/FEMALE, Target Tissue: Type of Lesion: SKIN: TUMOR, Dose [Carcinogen]: 6 J/M2/SEC 30 MIN/D, 5 D/WK FOR 27 WK): 81%, 67%, 17%, not significant
